Our source for the IC50 values is US20090036450A1, “PYRAZOLE COMPOUNDS AND USE THEREOF” (JAPAN TOBACCO, INC., priority 2006, published 2009).

pIC50: −log10 of the molar value. Structures can show the parent of a compound that is named as a salt.

Broadly, the pIC50 is −log10 of the IC50, conventionally taken in molar units.

The assay deals with T1, human liver glycogen phosphorylase (Homo sapiens, UniProt P06737).
T1 construct: made in house; host or cells: Sf9 insect cells (suspension of disrupted cells, diluted in BES buffer, not purified)
T1 sequence (P06737 1-847): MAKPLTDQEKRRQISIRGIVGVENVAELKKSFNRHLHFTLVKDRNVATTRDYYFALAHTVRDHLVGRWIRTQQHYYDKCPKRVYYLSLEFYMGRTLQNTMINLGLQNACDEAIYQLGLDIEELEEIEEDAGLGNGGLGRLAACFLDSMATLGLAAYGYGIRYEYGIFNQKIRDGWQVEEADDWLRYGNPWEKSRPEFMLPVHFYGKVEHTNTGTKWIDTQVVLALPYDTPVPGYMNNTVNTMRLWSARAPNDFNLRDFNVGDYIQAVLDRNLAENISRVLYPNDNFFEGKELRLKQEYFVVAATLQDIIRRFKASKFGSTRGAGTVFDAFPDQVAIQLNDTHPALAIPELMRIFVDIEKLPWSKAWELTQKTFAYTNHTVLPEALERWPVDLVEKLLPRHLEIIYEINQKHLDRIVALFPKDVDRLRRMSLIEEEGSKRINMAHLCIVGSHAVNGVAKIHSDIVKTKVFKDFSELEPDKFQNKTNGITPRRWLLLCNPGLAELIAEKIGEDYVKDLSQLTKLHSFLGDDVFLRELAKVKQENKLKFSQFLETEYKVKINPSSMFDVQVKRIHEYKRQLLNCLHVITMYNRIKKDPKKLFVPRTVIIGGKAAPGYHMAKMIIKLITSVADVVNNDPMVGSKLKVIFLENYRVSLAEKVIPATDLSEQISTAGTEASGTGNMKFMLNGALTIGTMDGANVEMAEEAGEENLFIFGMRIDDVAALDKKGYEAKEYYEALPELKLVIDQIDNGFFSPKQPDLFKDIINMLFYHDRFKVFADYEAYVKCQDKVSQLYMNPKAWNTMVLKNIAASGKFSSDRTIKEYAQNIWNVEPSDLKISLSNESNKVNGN
The assay can be described thus: Liver glycogen phosphorylase activity, forward reaction system (NADPH detection at 340 nm). The format is biochemical. As to conditions: enzyme inhibitory activity against recombinant human liver glycogen phosphorylase (Sf9 cell lysate), room temperature, 75 minutes. Summed up:
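Recombinant human liver glycogen phosphorylase from Sf9 lysate, run in forward direction with glycogen and phosphate substrate plus glucose, coupled via phosphoglucomutase/G6PDH to NADPH formation. BES buffer pH 6.8, room temperature, 75 min; A340 change minus blank gives activity. IC50 from percent inhibition vs DMSO control.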

As to `Cc1nc(COC(=O)c2ccccc2)c(CNC(=O)c2cc(NC(=O)c3cc(F)c(F)cc3Cl)[nH]n2)o1` [Example 3-5, 5-(2-chloro-4,5-difluoro-benzoylamino)-1H-pyrazole-3-carboxylic acid (4-benzoyloxymethyl-2-methyl-oxazol-5-ylmethyl)-amide], the negative logarithm of the IC50 (pIC50) was over 7.00.

On to `Cc1nc(C(=O)O)c(CNC(=O)c2cc(NC(=O)c3cc(F)c(F)cc3Cl)[nH]n2)o1` [Example 3-6, 5-(2-chloro-4,5-difluoro-benzoylamino)-1H-pyrazole-3-carboxylic acid (4-carboxy-2-methyl-oxazol-5-ylmethyl)-amide], for which the pIC50 was over 7.00.

For the compound `Cc1nc(COCC(=O)O)oc1CNC(=O)c1cc(NC(=O)c2cc(F)c(F)cc2Cl)[nH]n1` [Example 3-7, 5-(2-chloro-4,5-difluoro-benzoylamino)-1H-pyrazole-3-carboxylic acid (2-carboxymethoxymethyl-4-methyl-oxazol-5-ylmethyl)-amide], the pIC50 is over 7.00.

Take `CCN(CC)C(=O)COCc1nc(C)c(CNC(=O)c2cc(NC(=O)c3cc(F)c(F)cc3Cl)[nH]n2)o1` [Example 3-8, 5-(2-chloro-4,5-difluoro-benzoylamino)-1H-pyrazole-3-carboxylic acid (2-diethylcarbamoyl methoxymethyl-4-methyl-oxazol-5-ylmethyl)-amide]: the pIC50 was over 7.00.

For `Cc1nc(COCC(=O)NCc2ccccc2)oc1CNC(=O)c1cc(NC(=O)c2cc(F)c(F)cc2Cl)[nH]n1` [Example 3-9, 5-(2-chloro-4,5-difluoro-benzoylamino)-1H-pyrazole-3-carboxylic acid [2-(benzylcarbamoyl-methoxymethyl)-4-methyl-oxazol-5-ylmethyl]-amide], the pIC50 is over 7.00.

For the compound `Cc1nc(COCC(=O)N2CCOCC2)oc1CNC(=O)c1cc(NC(=O)c2cc(F)c(F)cc2Cl)[nH]n1` [Example 3-10, 5-(2-chloro-4,5-difluoro-benzoylamino)-1H-pyrazole-3-carboxylic acid [4-methyl-2-(2-morpholin-4-yl-2-oxo-ethoxymethyl)-oxazol-5-ylmethyl]-amide], the pIC50 was over 7.00.

Take `Cc1ccc(S(=O)(=O)NCc2nc(C)c(CNC(=O)c3cc(NC(=O)c4cc(F)c(F)cc4Cl)[nH]n3)o2)cc1` [Example 3-11, 5-(2-chloro-4,5-difluoro-benzoylamino)-1H-pyrazole-3-carboxylic acid {4-methyl-2-[(toluene-4-sulfonylamino)-methyl]-oxazol-5-ylmethyl}-amide]: the pIC50 is over 7.00.

Regarding `CC(=O)NCc1nc(C)c(CNC(=O)c2cc(NC(=O)c3cc(F)c(F)cc3Cl)[nH]n2)o1` [Example 3-12, 5-(2-chloro-4,5-difluoro-benzoylamino)-1H-pyrazole-3-carboxylic acid [2-(acetylamino-methyl)-4-methyl-oxazol-5-ylmethyl]-amide dihydrochloride], the pIC50 is over 7.00.

As for `Cc1nc(CNC(=O)c2ccc(Cl)cc2)oc1CNC(=O)c1cc(NC(=O)c2cc(F)c(F)cc2Cl)[nH]n1` [Example 3-13, 5-(2-chloro-4,5-difluoro-benzoylamino)-1H-pyrazole-3-carboxylic acid {2-[(4-chloro-benzoylamino)-methyl]-4-methyl-oxazol-5-ylmethyl}-amide], the pIC50 was over 7.00.

With `Cc1nc(C(=O)O)oc1CNC(=O)c1cc(NC(=O)c2cc(F)c(F)cc2Cl)[nH]n1` [Example 3-14, sodium 5-({[5-(2-chloro-4,5-difluoro-benzoylamino)-1H-pyrazole-3-carbonyl]-amino}-methyl)-4-methyl-oxazole-2-carboxylate], the pIC50 is over 7.00.

With `Cc1nc(C(=O)N2CCCCC2)oc1CNC(=O)c1cc(NC(=O)c2cc(F)c(F)cc2Cl)[nH]n1` [Example 3-15, 5-(2-chloro-4,5-difluoro-benzoylamino)-1H-pyrazole-3-carboxylic acid [4-methyl-2-(piperidine-1-carbonyl)-oxazol-5-ylmethyl]-amide], the pIC50 is over 7.00.

Turning to `Cc1nc(C(=O)NCc2ccccc2)oc1CNC(=O)c1cc(NC(=O)c2cc(F)c(F)cc2Cl)[nH]n1` [Example 3-16, 5-(2-chloro-4,5-difluoro-benzoylamino)-1H-pyrazole-3-carboxylic acid (2-benzylcarbamoyl-4-methyl-oxazol-5-ylmethyl)-amide], the pIC50 was over 7.00.

For the compound `Cc1nc(C(=O)OCc2ccccc2)oc1CNC(=O)c1cc(NC(=O)c2cc(F)c(F)cc2Cl)[nH]n1` [Example 3-17, 5-(2-chloro-4,5-difluoro-benzoylamino)-1H-pyrazole-3-carboxylic acid (2-benzyloxycarbonyl-4-methyl-oxazol-5-ylmethyl)-amide], the pIC50 was over 7.00.

Take `Cc1nc(CNC(=O)c2cc(NC(=O)c3cc(F)c(F)cc3Cl)[nH]n2)oc1C(=O)O` [Example 3-18, 5-(2-chloro-4,5-difluoro-benzoylamino)-1H-pyrazole-3-carboxylic acid (5-carboxy-4-methyl-oxazol-2-ylmethyl)-amide]: the pIC50 is over 7.00.

As for `O=C(O)Cc1nnc(CNC(=O)c2cc(NC(=O)c3cc(F)c(F)cc3Cl)[nH]n2)o1` [Example 3-19, 5-(2-chloro-4,5-difluoro-benzoylamino)-1H-pyrazole-3-carboxylic acid (5-carboxymethyl-[1,3,4]oxadiazol-2-ylmethyl)-amide], the pIC50 is 6.52 to 7.00.

As for `NC(=O)Cc1nnc(CNC(=O)c2cc(NC(=O)c3cc(F)c(F)cc3Cl)[nH]n2)o1` [Example 3-20, 5-(2-chloro-4,5-difluoro-benzoylamino)-1H-pyrazole-3-carboxylic acid (5-carbamoylmethyl-[1,3,4]oxadiazol-2-ylmethyl)-amide], the pIC50 was 6.52 to 7.00.

As for `Cc1nc(COC(=O)c2cccs2)c(CNC(=O)c2cc(NC(=O)c3cc(F)c(F)cc3Cl)[nH]n2)o1` [Example 3-22, 5-(2-chloro-4,5-difluoro-benzoylamino)-1H-pyrazole-3-carboxylic acid [2-methyl-4-(thiophene-2-carbonyloxymethyl)-oxazol-5-ylmethyl]-amide], the pIC50 is over 7.00.

Turning to `Cc1nc(COC(=O)C2CCCCC2)c(CNC(=O)c2cc(NC(=O)c3cc(F)c(F)cc3Cl)[nH]n2)o1` [Example 3-23, 5-(2-chloro-4,5-difluoro-benzoylamino)-1H-pyrazole-3-carboxylic acid (4-cyclohexanecarbonyloxymethyl-2-methyl-oxazol-5-ylmethyl)-amide], the pIC50 was over 7.00.

Consider `Cc1nc(CO)oc1CNC(=O)c1cc(NC(=O)c2cc(F)c(F)cc2Cl)[nH]n1` [Example 3-24, 5-(2-chloro-4,5-difluoro-benzoylamino)-1H-pyrazole-3-carboxylic acid (2-hydroxymethyl-4-methyl-oxazol-5-ylmethyl)-amide hydrochloride], for which the pIC50 is over 7.00.

Take `Cc1nc(C(=O)N(C)Cc2ccccc2)oc1CNC(=O)c1cc(NC(=O)c2cc(F)c(F)cc2Cl)[nH]n1` [Example 3-25, 5-({[5-(2-chloro-4,5-difluoro-benzoylamino)-1H-pyrazole-3-carbonyl]-amino}-methyl)-4-methyl-oxazole-2-carboxylic acid benzyl-methyl-amide]: the pIC50 is over 7.00.
